Test results as given in US6528685B2 (Teva Pharmaceutical Industries, Ltd., priority 1994, dated 2003).
Counter-ions that a name gives are not always drawn. Values belong to the compound of their own block, whether it stands above or below them.

Key:
rats [1] = test: Maximal electroshock (MES) model, rats; conditions: rats, oral (p.o.) administration; median effective dose
rats [2] = test: Neurotoxicity in rats, positional sense test and gait stance test; conditions: rats p.o.; positional sense test and gait stance test
Protocol: (§1) Neurotoxicity of the claimed agents was also assessed in mice (i.p. administration) by the rotorod ataxia test and/or in rats (p.o. administration) by positional sense test and gait stance test. […] The term quantitating the neurotoxicity is the medial neurological toxic dose (TD50), was determined in the above tests.

mice [3] = test: Neurotoxicity in mice, rotorod ataxia test; conditions: mice i.p.; rotorod ataxia test
Protocol: as §1

mice [4] = test: Maximal electroshock (MES) model, mice; conditions: mice; for MICE MES ED50: intraperitoneal (i.p.) administration
male ICR albino mice = test: Hypobaric hypoxic model in mice, survival time; assay type: in vivo, mouse
Protocol: Desiccator B was disconnected and allowed to equilibrate with room air whilst desiccator A was evacuated to a pressure of 100 mmHg. […] The survival time from the moment of induction of hypoxia to the time of cessation of respiration was recorded for each mouse for a maximum of 15 minutes after which time room air was reintroduced to desiccator B. Survivors were monitored for signs of lethargy or vitality.
Effect of drug treatment was assessed as the percent of the survival time of the drug treated group with respect to the saline injected or vehicle injected control group. Control groups were run twice, before and after each experimental group and consisted of 12-16 mice in groups of 4 mice. Each experimental group always consisted of 4 mice to ensure a constant residual volume of oxygen in all tests. The effect of each dose of test drug was determined in duplicate i.e. two groups of 4 mice.
All drugs were administered intra-peritoneally at the dose indicated one hour prior to exposure to hypoxia.

mongolian gerbils = test: Global brain ischemia in gerbils; assay type: in vivo, mongolian gerbil; conditions: 3 injections, fraction of hippocampi protected from ischemia, 14 days post-ischemia
Protocol: Male mongolian gerbils, aged 2.5-5 months, housed 4-8 in a cage, were supplied freely with food and water and maintained at 24° C. with a 12 hour day/night cycle. […] Each artery was clamped for 5 minutes with aneurysm clips to produce global brain ischemia. The anesthesia was discontinued upon clamping. After 5 minutes the clamps were removed and the wound closed with skin clips.
For treatment, the test compound or vehicle were injected intra-peritoneally (ip) in a volume of 50 microliters of solvent per 10 g body weight. The first injection was given two minutes after clamp removal, and thereafter daily for the next 2 post-operative days (total of 3 injections).
Seven groups each of 4-8 animals were compared:
V. Ischemia—Test compound treated, one sub-group per concentration tested,
VI. Ischemia and pentobarbital (40 mg/kg) as positive control).
Analysis of neuronal damage was performed 14 days post-ischemia by counting pyramidal neurons throughout the CA1 layer of the anterior hippocampus in […] thick (paraffin) coronal brain sections stained with hematoxylin and erosin.
Percent Protection values represent the fraction of hippocampi protected from ischemia in a group of animals treated with the stated dose of compound.

[5] = 50 mg/kg ip one hour prior to hypoxia
[6] = 100 mg/kg ip one hour prior to hypoxia

SMILES: Cc1ccc2c(c1)CCC2N (racemic) [Compound 38, (rac)-5-Methyl-1-aminoindan.HCl]
- RATS MES 50 (rats [1]): 50 mg/kg
- RATS TD50 (rats [2]): >50 mg/kg
- MICE TD50 (mice [3]): <100 mg/kg
- MICE MES ED50 (mice [4]): <100 mg/kg

SMILES: COc1ccc2c(c1OC)CC[C@@H]2N.Cl [Compound 30, (S)-4,5-Dimethoxy-1-aminoindan.HCl]
- PROTECTION % OF RESPECTIVE CONTROL (male ICR albino mice; [5]): 265 ± 284%
- PROTECTION % OF RESPECTIVE CONTROL (male ICR albino mice; [6]): 379 ± 202%

SMILES: CC(=O)NC1CCc2cccc(C)c21 (racemic) [Compound 20, (rac)-7-Methyl-N-acetyl-1-aminoindan]
- melting point: 166 to 167 °C

SMILES: c1ccc(CNC2CCc3ccccc32)cc1 (racemic) [Compound 16, (rac)-N-Benzyl-1-aminoindan.HCl]
- RATS MES 50 (rats [1]): 50 mg/kg
- RATS TD50 (rats [2]): >50 mg/kg
- MICE MES ED50 (mice [4]): <50 mg/kg

SMILES: c1ccc2c(c1)CCC2NC1CCc2ccccc21 (racemic) [Compound 43, (rac)-N,N-Di-(1-indanyl)amine.HCl]
- RATS MES 50 (rats [1]): <50 mg/kg
- RATS TD50 (rats [2]): >50 mg/kg
- MICE TD50 (mice [3]): <100 mg/kg
- MICE MES ED50 (mice [4]): <100 mg/kg

SMILES: C#CCNC1CCc2ccc(F)cc21 (stereo not drawn) [L, 6-fluoro-N-propargyl-1-aminoindan]
- activity in the MES model in mice, in words (mice [4]): showed activity

SMILES: COc1ccc2c(c1OC)CCC2N (racemic) [Compound 31, (rac)-4,5-Dimethoxy-1-aminoindan.HCl]
- RATS TD50 (rats [2]): >50 mg/kg
- MICE TD50 (mice [3]): <100 mg/kg
- activity in the MES model in mice, in words (mice [4]): showed activity
- MICE MES ED50 (mice [4]): <100 mg/kg

SMILES: C[C@@H]1Cc2ccccc2[C@H]1N (racemic) [Compound 39, (rac)-trans-2-Methyl-1-aminoindan.HCl]
- RATS MES 50 (rats [1]): <50 mg/kg
- PROTECTION % OF RESPECTIVE CONTROL (male ICR albino mice; [5]): 600 ± 213%
- PROTECTION % OF RESPECTIVE CONTROL (male ICR albino mice; [6]): 798 ± 249%
- RATS TD50 (rats [2]): >50 mg/kg
- MICE TD50 (mice [3]): <100 mg/kg
- MICE MES ED50 (mice [4]): <100 mg/kg

SMILES: CCCC(=O)NC1CCc2ccccc21 (racemic) [Compound 11, (rac)-N-Butyryl-1-aminoindan]
- melting point: 84 to 85 °C

SMILES: CC(=O)N[C@H]1CCc2ccccc21 [Compound 19, (S)-N-Acetyl-1-aminoindan]
- PERCENT PROTECTION (mongolian gerbils; 1.0 mg/kg ip): 0%

SMILES: COc1ccc2c(c1OC)CC[C@H]2NC(C)=O [Compound 21, (R)-4,5-Dimethoxy-N-acetyl-1-aminoindan]
- melting point: 175 °C

SMILES: COc1ccc2c(c1)C(N)CC2 (racemic) [Compound 25, (rac)-6-Methoxy-1-aminoindan.HCl]
- RATS MES 50 (rats [1]): 50 mg/kg
- MICE TD50 (mice [3]): >100 mg/kg
- MICE MES ED50 (mice [4]): <100 mg/kg

SMILES: N[C@H]1CCc2ccc(F)cc21 [K, (S)-6-fluoro-1-aminoindan]
- activity in the MES model in mice, in words (mice [4]): showed activity

SMILES: CC(C)(C)OC(=O)NCCCC(=O)NC1CCc2ccccc21 (racemic) [Compound 6, (rac)-N-(N-Boc-4-aminobutyryl)-1-aminoindan]
- melting point: 118 to 120 °C

SMILES: NC1CCc2ccc(O)cc21 (racemic) [Compound 34, (rac)-6-Hydroxy-1-aminoindan.HCl]
- MICE TD50 (mice [3]): >300 mg/kg
- activity in the MES model in mice, in words (mice [4]): showed activity
- MICE MES ED50 (mice [4]): <300 mg/kg

SMILES: C#CCN[C@H]1CCc2ccccc21.Cl [G, (S)-N-propargyl-1-aminoindan HCl salt]
- RATS MES 50 (rats [1]): 57 mg/kg

SMILES: N[C@H]1CCc2ccccc21 [C, (S)-1-aminoindan]
- PERCENT PROTECTION (mongolian gerbils; 0.1 mg/kg ip): 0%
- PERCENT PROTECTION (mongolian gerbils; 1.0 mg/kg ip): 50.0%

SMILES: NC1CCc2ccc(F)cc21 (stereo not drawn) [I, 6-fluoro-1-aminoindan]
- RATS MES 50 (rats [1]): <50 mg/kg

SMILES: Cc1cccc2c1C(N)CC2 (racemic) [Compound 28, (rac)-7-Methyl-1-aminoindan.HCl]
- RATS MES 50 (rats [1]): <50 mg/kg
- PROTECTION % OF RESPECTIVE CONTROL (male ICR albino mice; [5]): 361 ± 106%
- PROTECTION % OF RESPECTIVE CONTROL (male ICR albino mice; [6]): 941 ± 34%
- RATS TD50 (rats [2]): >50 mg/kg
- MICE TD50 (mice [3]): <100 mg/kg
- MICE MES ED50 (mice [4]): <100 mg/kg

SMILES: CN(C)C1CCc2ccccc21 (racemic) [Compound 15, (rac)-N,N-Dimethyl-1-aminoindan.HCl]
- RATS MES 50 (rats [1]): 50 mg/kg
- RATS TD50 (rats [2]): >50 mg/kg
- MICE TD50 (mice [3]): <100 mg/kg

SMILES: NC1Cc2ccccc21 (stereo not drawn) [Compound 27, 1-Aminobenzocyclobutene.HCl]
- RATS MES 50 (rats [1]): <50 mg/kg
- RATS TD50 (rats [2]): >50 mg/kg
- MICE TD50 (mice [3]): >100 mg/kg
- MICE MES ED50 (mice [4]): <100 mg/kg

SMILES: C[C@H]1Cc2ccccc2[C@H]1N (racemic) [Compound 40, (rac)-cis-2-Methyl-1-aminoindan.HCl]
- RATS MES 50 (rats [1]): <50 mg/kg
- PROTECTION % OF RESPECTIVE CONTROL (male ICR albino mice; [5]): 374 ± 190%
- PROTECTION % OF RESPECTIVE CONTROL (male ICR albino mice; [6]): 569 ± 173%
- RATS TD50 (rats [2]): >50 mg/kg
- MICE TD50 (mice [3]): <100 mg/kg
- MICE MES ED50 (mice [4]): <100 mg/kg

SMILES: O=CNC1CCc2ccccc21 (racemic) [Compound 8, (rac)-N-Formyl-1-aminoindan]
- melting point: 105 °C

SMILES: NC(=O)CNC1CCCc2ccccc21 (racemic) [Compound 4, (rac)-N-(2-Acetamido)-1-aminotetralin]
- MICE MES ED50 (mice [4]): <100 mg/kg

SMILES: Cc1cc(C)c2c(c1)C(C)CC2N.Cl (racemic) [Compound 41, (rac)-3,5,7-Trimethyl-1-aminoindan.HCl]
- PROTECTION % OF RESPECTIVE CONTROL (male ICR albino mice; [5]): 187 ± 41%
- PROTECTION % OF RESPECTIVE CONTROL (male ICR albino mice; [6]): 644 ± 316%

SMILES: NC1CCc2cccc(O)c21 (racemic) [Compound 42, (rac)-7-Hydroxy-1-aminoindan.HCl]
- RATS MES 50 (rats [1]): <50 mg/kg
- PROTECTION % OF RESPECTIVE CONTROL (male ICR albino mice; [5]): 179 ± 170%
- PROTECTION % OF RESPECTIVE CONTROL (male ICR albino mice; [6]): 228 ± 119%
- RATS TD50 (rats [2]): >50 mg/kg

Continued, values first:

- melting point: 109 to 110 °C
SMILES: O=C(NC1CCc2ccccc21)c1ccc(F)cc1 (racemic) [Compound 53, (rac)-N-(4′-Fluorobenzoyl)-1-aminoindan]

- melting point: 146 to 147 °C
SMILES: CCOC(=O)c1ccc2c(c1)C(NC(C)=O)CC2 (racemic) [Compound 63, (rac)-6-Ethoxycarbonyl-N-acetyl-1-aminoindan]

- melting point: 124 to 125 °C
SMILES: CCCN(CCC)S(=O)(=O)c1ccc(C(=O)NC2CCc3ccccc32)cc1 (racemic) [Compound 69, (rac)-N-(4-(di-n-Propylsulfamoyl)benzoyl)-1-aminoindan]

- melting point: 244 to 247 °C
SMILES: O=C(CCCCC(=O)N[C@@H]1CCc2ccccc21)N[C@@H]1CCc2ccccc21 [Compound 74, N,N′-Bis-((R)-1-indanyl)adipamide]

- melting point: 179 °C
SMILES: CC(=O)NC1CCc2ccc([N+](=O)[O-])cc21 (stereo not drawn) [Compound 58, N-Acetyl-6-nitro-1-aminoindan]

- melting point: 140 to 142 °C
SMILES: O=C(NC1CCc2ccccc21)c1ccccc1 (racemic) [Compound 46, (rac)-N-Benzoyl-1-aminoindan]

- melting point: 227 °C
SMILES: O=C(CCCCC(=O)NC1CCc2ccccc21)NC1CCc2ccccc21 (stereo not drawn) [Compound 73, N,N′-Bis-(1-indanyl)adipamide]

- melting point: 266 to 269 °C
SMILES: O=C(CCC(=O)N[C@@H]1CCc2ccccc21)N[C@@H]1CCc2ccccc21 [Compound 75, N,N′-Bis-((R)-1-indanyl)succinamide]

- melting point: 152 to 153 °C
SMILES: O=C(N[C@@H]1CCc2ccccc21)C(F)(F)F [Compound 68, (R)-N-Trifluoroacetyl-1-aminoindan]

- melting point: 140 °C
SMILES: Cc1ccc(C(=O)NC2CCc3ccccc32)cc1 (racemic) [Compound 54, (rac)-N-(p-Toluoyl)-1-aminoindan]

- melting point: 131 to 132 °C
SMILES: COc1ccc2c(c1)C(NC(C)=O)CC2 (racemic) [Compound 26, (rac) 6-methoxy-N-acetyl-1-aminoindan]

- melting point: 133 to 134 °C
SMILES: CCCC(CCC)C(=O)NC1CCc2ccccc21 (stereo not drawn) [Compound 47, N-(2-n-Propylpentanoyl)-1-aminoindan]

- melting point: 140 °C
SMILES: COc1cccc(C(=O)NC2CCc3ccccc32)c1 (racemic) [Compound 52, (rac)-N-(m-Anisoyl)-1-aminoindan]

- melting point: 175 to 176 °C
SMILES: CC(=O)NC1CCc2ccc(C#N)cc21 (racemic) [Compound 61, (rac)-6-Cyano-N-acetyl-1-aminoindan]
